Results taken from ChEMBL document CHEMBL1144029, “Characterization of type II ligands in CYP2C9 and CYP3A4” (J Med Chem, 2008).

Tests used:
Cytochrome P450 3A4 [1] = target: T1, Cytochrome P450 3A4 (Homo sapiens, UniProt P08684); experiment: Inhibition of human recombinant CYP3A4 expressed in Saccharomyces cerevisiae by fluorescence assay; type: ADME
Cytochrome P450 3A4 [2] = target: T1, Cytochrome P450 3A4; experiment: Binding affinity to purified human recombinant CYP3A4 expressed in Escherichia coli assessed as spectral dissociation constant; type: ADME
Cytochrome P450 2C9 [3] = target: T2, Cytochrome P450 2C9 (Homo sapiens, UniProt P11712); experiment: Inhibition of human recombinant CYP2C9 expressed in Saccharomyces cerevisiae by fluorescence assay; type: ADME
T2 sequence (P11712 whole entry): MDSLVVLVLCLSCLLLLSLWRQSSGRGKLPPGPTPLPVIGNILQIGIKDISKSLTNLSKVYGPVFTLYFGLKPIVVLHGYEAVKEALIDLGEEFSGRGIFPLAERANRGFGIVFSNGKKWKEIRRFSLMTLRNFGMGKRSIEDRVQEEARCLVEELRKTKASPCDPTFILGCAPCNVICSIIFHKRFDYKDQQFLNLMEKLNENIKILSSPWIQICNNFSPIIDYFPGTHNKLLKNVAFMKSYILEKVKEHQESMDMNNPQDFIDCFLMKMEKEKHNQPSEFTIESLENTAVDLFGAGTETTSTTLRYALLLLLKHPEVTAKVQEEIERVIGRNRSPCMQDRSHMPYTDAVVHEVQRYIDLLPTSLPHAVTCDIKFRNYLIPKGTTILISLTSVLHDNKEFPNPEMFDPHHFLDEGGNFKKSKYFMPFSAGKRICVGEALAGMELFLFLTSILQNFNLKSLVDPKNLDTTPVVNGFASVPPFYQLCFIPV

Homo sapiens = species: Homo sapiens; experiment: Selectivity for human recombinant CYP2C9 over human recombinant CYP3A4
Cytochrome P450 2C9 [4] = target: T2, Cytochrome P450 2C9; experiment: Binding affinity to purified human recombinant CYP2C9 expressed in Escherichia coli assessed as spectral dissociation constant; type: ADME

T1 sequence (P08684 whole entry): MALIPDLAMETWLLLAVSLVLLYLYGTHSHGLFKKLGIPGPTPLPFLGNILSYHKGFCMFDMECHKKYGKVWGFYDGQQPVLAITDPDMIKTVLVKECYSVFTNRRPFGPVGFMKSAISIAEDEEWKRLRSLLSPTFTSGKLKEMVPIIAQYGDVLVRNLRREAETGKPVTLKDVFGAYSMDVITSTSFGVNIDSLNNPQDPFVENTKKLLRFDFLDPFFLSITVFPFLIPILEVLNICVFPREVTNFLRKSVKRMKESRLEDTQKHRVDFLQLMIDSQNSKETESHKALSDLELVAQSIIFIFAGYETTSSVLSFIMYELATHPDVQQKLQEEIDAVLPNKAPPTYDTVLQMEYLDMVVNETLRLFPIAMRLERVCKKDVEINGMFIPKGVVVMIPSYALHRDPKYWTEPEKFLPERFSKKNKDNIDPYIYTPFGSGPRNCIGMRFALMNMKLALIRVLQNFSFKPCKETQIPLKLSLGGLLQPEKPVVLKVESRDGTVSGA

| SMILES | IC50 (Cytochrome P450 3A4 [1]) [µM] | IC50 (Cytochrome P450 2C9 [3]) [µM] | Selectivity ratio (Homo sapiens) | Kd (Cytochrome P450 3A4 [2]) [µM] | Kd (Cytochrome P450 2C9 [4]) [µM] |
| --- | --- | --- | --- | --- | --- |
| CS(=O)(=O)OCC1COC(Cn2cncn2)(c2ccc(Cl)cc2Cl)O1 (centres undefined) | 7.7 | > 50 |  | 3.5 |  |
| Cc1cnc(CNc2cc(-c3ccccc3)nc(-c3ccccn3)n2)nc1 | > 40 | > 50 |  |  |  |
| COC(=O)[C@H](Cc1cnc[nH]1)NCc1ccccc1 | 1.5 | 20 |  |  |  |
| O=C(Nc1ccccc1)OCc1cn(-c2ccc(Cl)cc2)nn1 | > 20 |  |  |  |  |
| Clc1ccc(Cn2cc(-c3ccncc3)cn2)c(Cl)c1 | 0.23 | 0.5 |  | 0.38 | 3.6 |
| CCC1COC(Cn2cncn2)(c2ccc(Cl)cc2Cl)O1 (centres undefined) [ETACONAZOLE] | 0.21 | > 50 |  | 0.21 |  |
| Clc1ccc(C2(Cn3cncn3)CC(Br)CO2)c(Cl)c1 (centres undefined) [BROMUCONAZOLE] | 0.13 | 8.1 |  |  |  |
| Cc1cc(C(C)(C)NC(=O)C(Br)C(C)(C)C)cc(C)n1 (centres undefined) | 13 | > 50 |  |  |  |

The next lines start with results.

| IC50 (Cytochrome P450 3A4 [1]) [µM] | IC50 (Cytochrome P450 2C9 [3]) [µM] | Selectivity ratio (Homo sapiens) | SMILES | Kd (Cytochrome P450 3A4 [2]) [µM] | Kd (Cytochrome P450 2C9 [4]) [µM] |
| --- | --- | --- | --- | --- | --- |
| 44 | > 50 |  | O[C@](Cn1cccn1)(c1ccc(F)cc1F)n1cncn1 |  |  |
| 26 | 1.3 | 20 | CS(=O)(=O)c1ccc(Cn2cc(-c3ccncc3)cn2)cc1 |  |  |
| 0.071 | 4.8 |  | Cc1cnc(CNc2cc(-c3ccccc3)nc(-c3ccncc3)n2)nc1 |  |  |
| 1.3 | 4.3 |  | Brc1ccc(-n2c(SCc3ccccc3)nnc2-c2ccncc2)cc1 |  |  |
| 0.06 | 10 |  | Clc1ccc(OC(Cn2ccnc2)c2ccc(Cl)cc2Cl)c(Cl)c1 (centres undefined) |  |  |
| 33 | 39 |  | COc1ccc(-c2cc(CNS(=O)(=O)c3ccccc3)on2)cc1 |  |  |
| 34 | > 30 |  | CCOc1ccc(NC(=O)c2ccc(-n3cnnn3)cc2)cc1 |  |  |
| > 40 | > 50 |  | CS(=O)(=O)Cc1cc(N2CCCC2)nc(-c2ccccc2)n1 |  |  |
| 28 | > 50 |  | CCn1c(SCc2ccc(OC)cc2)nnc1-c1ccncc1 |  |  |
| 1.3 | > 50 |  | CS(=O)(=O)Cc1cc(N2CCCC2)nc(-c2ccncc2)n1 |  |  |
| 12 | 11 |  | CCOC(=O)C(Cc1ccc(Cl)cc1Cl)c1ccno1 (centres undefined) |  |  |
| 9.6 | 21 |  | Cc1cnc(CNc2cc(-c3ccccc3)nc(-c3cccnc3)n2)nc1 |  |  |
